Experiments:
[1] = target: BSA (Bovine Serum Albumin) (Bos taurus, UniProt P02769); experiment: Conductivity test: surfactant binding to BSA protein; conditions: 10% SDS with 10% oil (1:1), 0.5% BSA in 0.02M acetate buffer pH~5.2, room temperature
Experimental: Conductance measurements were carried out at room temperature by use of a Thermo conductivity meter, model Orion 150+. Routinely, the titrations were performed by adding a controlled amount of 10% of stock surfactant solution under magnetic stirring into the 0.5% BSA (Bovine Serum Albumin) in 0.02M acetate buffer at pH˜5.2. Values of CMC (critical micellization concentration), CAC (critical aggregation concentration) and protein saturation point (PSP) were defined by the changing of the slope of the conductivity vs. surfactant concentration plots. The number of surfactants binding to each protein can be calculated by: {[PSP]−[CAC]}/{[protein]/Mwprotein}, where [protein] is the protein concentration.
In order to show the effect of benefit agent having different polarity on binding to protein molecule (a reflection of the harshness of surfactant; more surfactant binding to protein equal harsher and more damage expected), applicants tested surfactant binding of (1) surfactant alone and (2) of surfactant in combination with various oils/cosolvents (at 1:1 surfactant to oil ratio) to see level of (how many) surfactants binding per protein molecule (e.g., BSA) at saturation. The tests were done using conductivity test described in protocol and results are set forth below in Table 1.
Applicants conducted same test as in Examples 1 to 10, but used SLES/CAPB surfactant system instead of SDS.

[2] = target: BSA (Bos taurus, UniProt P02769); experiment: Micro-DSC for protein denaturation; conditions: denaturation enthalpy approaching zero, FIG. 5
BSA, sequence (P02769 25-607): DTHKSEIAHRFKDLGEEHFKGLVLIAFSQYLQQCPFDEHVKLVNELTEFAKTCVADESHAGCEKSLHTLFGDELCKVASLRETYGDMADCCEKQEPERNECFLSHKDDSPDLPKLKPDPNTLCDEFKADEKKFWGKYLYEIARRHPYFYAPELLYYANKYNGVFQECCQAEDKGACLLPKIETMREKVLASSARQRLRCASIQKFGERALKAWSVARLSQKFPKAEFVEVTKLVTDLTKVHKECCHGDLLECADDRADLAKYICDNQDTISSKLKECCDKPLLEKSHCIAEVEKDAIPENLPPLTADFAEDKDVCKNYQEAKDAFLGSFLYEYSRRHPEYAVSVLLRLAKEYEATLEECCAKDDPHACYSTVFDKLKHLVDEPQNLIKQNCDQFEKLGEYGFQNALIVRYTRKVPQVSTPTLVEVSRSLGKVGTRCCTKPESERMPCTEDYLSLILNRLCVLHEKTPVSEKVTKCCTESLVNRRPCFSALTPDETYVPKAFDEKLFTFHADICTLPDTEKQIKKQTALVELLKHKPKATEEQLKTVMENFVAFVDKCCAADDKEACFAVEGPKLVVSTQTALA
Experimental: 1.2% of BSA acetate buffer solution was prepared (pH 5.2, IS 0.02). […] Then the BSA acetate solution was titrated with either oil, or surfactant, or oil/surfactant at 1:1 ratio. After each titration, a DSC measurement was performed.

[3] = system: pig skin; experiment: HPLC test for surfactant deposition onto pig skin after wash; conditions: SDS measured in combination with the benefit agent

BSA (Bovine Serum Albumin), sequence (P02769 25-607): as above

SMILES | Saturated binding: No. of surfactant per BSA at saturation [1] | ratio surfactant to protein at which BSA is fully denatured at room temperature [2] | SDS deposition versus SDS alone (FIG. 1) [3]
CCCCCCCCCCCCOS(=O)(=O)[O-].[Na+] [10% SDS, Sodium dodecyl sulfate] | 220 | about 1.2 | –
CCCCCCCCCCCC [dodecane] | – | – | deposition was about the same or higher

Reference: patent US7799747B2, “Method of reducing surfactant damage using compositions comprising benefit agents of defined high polarity” (Conopco, Inc., priority 2005, dated 2010)
